This is an account of results in PMC2395599, “Low Dose Histone Deacetylase Inhibitor, Depsipeptide (FR901228), Promotes Adenoviral Transduction in Human Rhabdomyosarcoma Cell Lines” (Sarcoma, 2004).

The test system of assay [1] is coxackie and adenovirus receptor (CAR). The assay can be described thus: Semi-quantitative RT-PCR for CAR RNA expression in RMS cells. Format: cell-based, human. As to conditions: 0.5 ng/ml, 72 h; for fold CAR expression: Fig. 3a. On the procedure: (§1) Sarcoma, March 2004, VOL. 8, NO. […] Methods. […] Results. […] Conclusions. […] Human av integrin primers:8 sense 50 -[…] AGT and antisense 50 -CAGTG[…] […] Cells were harvested after 72 h of treatment. Cell number was determined using a colorimetric MTT assay. […] The cells were replenished with complete media. […] References 1. […] Science 1997; 275: 1320-3. 2. […] J Virol 2000; 74: 42-8. 3. […] Virology 2000; 268: 382-90. 4. Wickham TJ, Mathias P, Cheresh DA, Nemerow GR. […] Cell 1993; 73: 309-19. 5. […] J Biol Chem 2000; 275: 14729-35. 6. […]. […] Cancer Res 1998; 58: 5738-48. 7. […] Cancer Res 1999; 59: 325-30. 8. […] Cancer Res 2001; 61: 6328-30. 9. […] Cancer Res 2001; 61: 2953-60. 10. […] J Biol Chem 1997; 272: 6479-89. 11.

Assay [2] deals with av integrin. Briefly: Semi-quantitative RT-PCR for αv integrin RNA expression in RMS cells. Format: cell-based, human. As to conditions: 0.5 ng/ml, 72 h; for fold av integrin expression: Fig. 3b. On the procedure: as §1
The subject of assay [3] is adenovirus AdU1 (GFP) uptake in RMS cell lines. The assay can be described thus: Adenoviral (AdU1) GFP expression in RMS cell lines pretreated with depsipeptide, Western blot densitometry. Format: cell-based, human. As to conditions: 0.5 ng/ml 72 h pretreatment; for fold GFP expression: Fig. 2b. How it is done: as §1
Assay [4] has as its system acetylated histone H3 in CTR cells. Briefly: Western blot analysis for histone H3 acetylation. Format: cell-based, human. As to conditions: CTR cell line, 0.5 ng/ml, 72 h, histone H3 loading control. On the procedure:
as §1
(A western blot detects proteins with antibodies after separation by electrophoresis.)

Assay [5] relates to RMS cell lines (RD4a, CTR, RH5, RH13, RH18, RH30). As to conditions: 0.5 ng/ml, 72 h, six RMS cell lines, MTT, triplicate, DMSO controls.
Where [6] appears, read: range over four of six RMS cell lines, RT-PCR normalised to GAPDH.

Values joined by “and” are separate entries in the source; they are usually repeats but may differ in a detail not shown here. Equal values may be shown once.

For `C/C=C1\NC(=O)[C@H]2CSSCC/C=C/[C@H](CC(=O)N[C@H](C(C)C)C(=O)N2)OC(=O)[C@H](C(C)C)NC1=O` [depsipeptide (FR901228), Depsipeptide (FR901228)], in assay [1] (CTR), the CAR expression entry is given as “lack of CAR expression”. The “fold CAR expression” value in assay [1] (RD4a) stood at 4.8 X; in assay [1] (RH5), 1.2 X; in assay [1] (RH13) it was 3.3 X; in assay [1] (RH18) it was 2.8 X; in assay [1] (RH30), 8.1 X. The “fold increase in CAR expression compared to untreated cells” value in assay [1] (setting [6]) is 2.8-8.1 fold. The “fold av integrin expression” value in assay [2] (CTR) was 2.2 X and 2 X; in assay [2] (RD4a), 1.3 X; in assay [2] (RH5) it was 6.6 X; in assay [2] (RH13) it was 6.9 X; in assay [2] (RH18) it was 1.5 X; in assay [2] (RH30), 1.1 X. In addition, the “fold modulation of av integrin expression” value in assay [2] (setting [6]) is given as 1.5-6.9 fold. For the same compound, the GFP protein expression result in assay [3] (CTR) is reported as “No GFP protein expression was detected”. In addition, the “fold GFP expression” value in assay [3] (RD4a) stood at 2.7 X; in assay [3] (RH13) it was 2.8 X; in assay [3] (RH18) it was 7.8 X; in assay [3] (RH30) it was 8.6 X. Besides, the “fold GFP expression (adenoviral uptake)” value in assay [3] (RH5, Fig. 2b and text) is 2.6 X and 2.8 X. Also, in assay [4], the “acetylated histone H3” value is given as “increase in acetylated histone H3”. Moreover, the “growth inhibition of RMS cells compared to controls” value in assay [5] is listed as “less than 20%”.
